Here are results for six molecules from PMC2748416 (Biochemistry, 2009).

Where two headings read alike, the source gives them in different places.

As usually defined, the Km is the concentration of substrate that gives half-maximal velocity. As a reminder, the Kd is the constant that tells how readily two partners part at equilibrium. The Ki is a dissociation constant, usually derived from enzyme kinetics or from competition with a known ligand.

Assay [1] concerns the target T1, WT MshC (Mycolicibacterium smegmatis, UniProt A0QZY0).
T1 sequence (A0QZY0 1-412): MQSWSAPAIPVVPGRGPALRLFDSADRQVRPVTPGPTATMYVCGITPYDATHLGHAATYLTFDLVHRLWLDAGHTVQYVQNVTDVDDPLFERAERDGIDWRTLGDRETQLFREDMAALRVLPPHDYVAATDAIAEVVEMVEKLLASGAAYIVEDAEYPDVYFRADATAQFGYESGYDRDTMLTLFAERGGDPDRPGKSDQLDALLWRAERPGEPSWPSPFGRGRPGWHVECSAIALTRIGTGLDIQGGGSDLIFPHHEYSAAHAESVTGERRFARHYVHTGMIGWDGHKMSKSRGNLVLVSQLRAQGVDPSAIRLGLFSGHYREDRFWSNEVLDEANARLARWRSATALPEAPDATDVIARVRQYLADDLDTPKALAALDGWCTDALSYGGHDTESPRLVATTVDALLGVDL
The assay can be described thus: Coupled spectrophotometric enzyme assay. The format is biochemical, Mycobacterium smegmatis. As to conditions: for Km: steady state, pH 7.8, 25 °C.

The target in assay [2] is T2, MshC D251N mutant (Mycolicibacterium smegmatis, UniProt A0QZY0, D251N).
The target of assay [3] is T3, MshC W227H mutant (Mycolicibacterium smegmatis, UniProt A0QZY0, W227H).
Another assay concerns the target MshC T83V mutant (Mycolicibacterium smegmatis, UniProt A0QZY0, T83V). The class given is biochemical, Mycobacterium smegmatis.
Assay [4] has as its target T4, MshC W227F mutant (Mycolicibacterium smegmatis, UniProt A0QZY0, W227F).
In assay [5] the target is T5, MshC D251A mutant (Mycolicibacterium smegmatis, UniProt A0QZY0, D251A).
Assay [6] deals with T6, MshC T46V mutant (Mycolicibacterium smegmatis, UniProt A0QZY0, T46V).
Assay [7] addresses T1, WT MshC. The assay can be described thus: Effect of added imidazole on enzyme activity. The format is biochemical, Mycobacterium smegmatis.
Another assay addresses MshC H55A (Mycolicibacterium smegmatis, UniProt A0QZY0, H55A). The assay can be described thus: Chemical rescue of enzyme activity by exogenous imidazole. The format is biochemical, Mycobacterium smegmatis.
Assay [8] has as its target T7, MshC H55A mutant (Mycolicibacterium smegmatis, UniProt A0QZY0, H55A). The assay is described as follows: Pre-steady state kinetics of cysteine adenylation. To be noted: read-out: Kd-ATP; first half reaction, fit to eq 9. The format is biochemical, Mycobacterium smegmatis.
The target in assay [9] is T7, MshC H55A mutant. As to conditions: for Km: steady state, pH 7.8, 25 °C.
Assay [10] has as its target T1, WT MshC. As to conditions: up to 10 mM ATP; cited from earlier work.
Assay [11] has as its target T2, MshC D251N mutant. The assay is described as follows: Pre-steady state kinetics of cysteine adenylation. As to conditions: read-out: Kd-ATP; first half reaction, fit to eq 9. The format is biochemical, Mycobacterium smegmatis.
The target in assay [12] is T1, WT MshC. The assay can be described thus: Pre-steady state kinetics of cysteine adenylation. The class given is biochemical, Mycobacterium smegmatis.
Assay [13] deals with T3, MshC W227H mutant. The assay can be described thus: Tryptophan fluorescence titration of inhibitor binding. On the set-up: species or system Mycobacterium smegmatis. As to conditions: fluorescence method, 0.1 μM protein, pH 7.8, 25 °C.
In assay [14] the target is T5, MshC D251A mutant. Described as above. On the set-up: species or system Mycobacterium smegmatis. As to conditions: fluorescence method, 0.1 μM protein, pH 7.8, 25 °C.
The target of assay [15] is T2, MshC D251N mutant. The description is as above. As to conditions: fluorescence method, 0.1 μM protein, pH 7.8, 25 °C. On the set-up: species or system Mycobacterium smegmatis.
Assay [16] has as its target T6, MshC T46V mutant. Described as above. On the set-up: species or system Mycobacterium smegmatis. As to conditions: fluorescence method, 0.1 μM protein, pH 7.8, 25 °C.
The target in assay [17] is T1, WT MshC. The description is as above. On the set-up: species or system Mycobacterium smegmatis. To be noted: fluorescence method, 0.1 μM protein, pH 7.8, 25 °C.
Assay [18] has as its target T4, MshC W227F mutant. The description is as above. On the set-up: species or system Mycobacterium smegmatis. To be noted: fluorescence method, 0.1 μM protein, pH 7.8, 25 °C.
Assay [19] concerns the target T7, MshC H55A mutant. The assay is described as above. To be noted: fluorescence method, 0.1 μM protein, pH 7.8, 25 °C. On the set-up: species or system Mycobacterium smegmatis.
Assay [20] deals with T6, MshC T46V mutant. The assay is described as follows: Pre-steady state kinetics of cysteine adenylation. The format is biochemical, Mycobacterium smegmatis.
In assay [21] the target is T4, MshC W227F mutant. The assay can be described thus: Pre-steady state kinetics of cysteine adenylation. The class given is biochemical, Mycobacterium smegmatis.
The mark [22] stands for this setting: read-out: Km-GlcN-Ins, at fixed saturating concentrations of ATP and cysteine.
Setting [23] is: read-out: Km-ATP, steady state, pH 7.8, 25 °C.
The mark [24] stands for this setting: read-out: Km-cys, steady state, pH 7.8, 25 °C.

Regarding `N[C@H]1[C@@H](OC2[C@H](O)[C@H](O)C(O)[C@H](O)[C@H]2O)O[C@H](CO)[C@@H](O)[C@@H]1O` (stereo partly shown) [GlcN-Ins, glucosamine-inositol], the Michaelis-Menten constant (Km) on WT MshC [1] (read-out: Km-GlcN-Ins) worked out at 160 ± 50 µM; at MshC D251N mutant [2] (setting [22]), 100 ± 60 µM; on MshC W227H mutant [3] (setting [22]), 600 ± 10 µM; at MshC T83V mutant (setting [22]), 170 ± 50 µM; at MshC W227F mutant [4] (setting [22]) it was 150 ± 60 µM; on MshC D251A mutant [5] (setting [22]) it was 160 ± 10 µM. The Km at MshC T46V mutant [6] (setting [22]) turned out to be 150 ± 80 µM.

Take `N[C@@H](CO)C(=O)O` [serine]: the activity as substrate entry at WT MshC [1] (tested up to 5 mM) is on record as “no activity”.

Consider `c1c[nH]cn1` [imidazole], for which the “effect of added imidazole on enzyme activity” value at WT MshC [7] is recorded as “No significant activating or inhibitory effect”. The “increase of kcat value” on MshC H55A (100 mM added imidazole, pH 6.75) is on record as “seven-fold increase”. Besides, on MshC H55A (pH 7.8 and pH 9), the “change in enzyme activity upon addition of imidazole” value was “no changes”.

On to `Nc1ncnc2c1ncn2[C@@H]1O[C@H](COP(=O)(O)OP(=O)(O)OP(=O)(O)O)[C@@H](O)[C@H]1O` [ATP], for which the Michaelis-Menten constant (Km) on WT MshC [1] (read-out: Km-ATP) was found to be 1800 ± 100 µM; at MshC D251N mutant [2] (setting [23]), 8900 ± 1600 µM; at MshC H55A mutant [9] (read-out: Km-ATP) it was 5200 ± 100 µM; on MshC W227H mutant [3] (setting [23]), 120 ± 10 µM; at MshC T83V mutant (setting [23]) it was 320 ± 60 µM; at MshC W227F mutant [4] (setting [23]) it was 200 ± 50 µM. For the same molecule, the Km on MshC D251A mutant [5] (setting [23]) was found to be 360 ± 11 µM; on MshC T46V mutant [6] (setting [23]) it was 1100 ± 30 µM. Moreover, the Kd worked out at 15000 ± 3000 µM on MshC H55A mutant [8]; 10200 ± 2800 µM at MshC D251N mutant [11]; 1700 ± 200 µM on WT MshC [12] (read-out: Kd-ATP, first half reaction, fit to eq 9). In addition, the substrate inhibition entry on MshC D251N mutant [2] (up to 20 mM ATP) is “not observed”; on WT MshC [10], “no substrate inhibition”. In addition, the “ATP concentration above which enzyme activity decreases” value on MshC D251A mutant [5] (2 mM cysteine, 200 μM GlcN-Ins) is reported as ~ 1.1 mM.

As to `Nc1ncnc2c1ncn2[C@@H]1O[C@H](COS(=O)(=O)NC(=O)[C@@H](N)CS)[C@@H](O)[C@H]1O` [CSA, 5'-O-[N-(L-cysteinyl)-sulfamonyl]adenosine, reference compound], the Ki on WT MshC [1] worked out at 0.304 ± 0.04 µM; at MshC D251N mutant [2], 0.52 ± 0.11 µM; on MshC H55A mutant [9] it was 0.89 ± 0.06 µM; on MshC W227H mutant [3], 0.03 ± 0.005 µM; at MshC W227F mutant [4], 0.056 ± 0.008 µM; on MshC D251A mutant [5] it was 0.93 ± 0.17 µM. The molecule further returned a Ki on MshC T46V mutant [6] of 0.36 ± 0.047 µM. In addition, the Kd on MshC W227H mutant [13] was 0.045 ± 0.002 µM; at MshC D251A mutant [14], 0.34 ± 0.01 µM; at MshC D251N mutant [15], 0.18 ± 0.013 µM; at MshC T46V mutant [16] it was 0.15 ± 0.01 µM; at WT MshC [17], 0.11 ± 0.01 µM; on MshC W227F mutant [18], 0.053 ± 0.01 µM. Also, binding at MshC H55A mutant [19] was characterised by a dissociation constant (Kd) of 0.35 ± 0.02 µM.

`N[C@@H](CS)C(=O)O` [cys, L-cysteine]: the Kd at MshC T46V mutant [20] turned out to be 800 ± 100 µM; at MshC W227F mutant [21], 600 ± 100 µM; at WT MshC [12], 160 ± 30 µM. In addition, the Michaelis constant (Km) worked out at 480 ± 150 µM on MshC D251N mutant [2] (setting [24]); 1100 ± 200 µM on MshC H55A mutant [9] (read-out: Km-cys); 120 ± 40 µM on MshC W227H mutant [3] (setting [24]); 20 ± 1 µM at MshC T83V mutant (setting [24]); 400 ± 100 µM on MshC W227F mutant [4] (setting [24]); 170 ± 20 µM at MshC D251A mutant [5] (setting [24]). The Km at MshC T46V mutant [6] (setting [24]) amounted to 1900 ± 200 µM.
